Key:
[1] = tested on: Pseudomonas aeruginosa (S-2838 strain); assay: Multidrug-resistant Pseudomonas aeruginosa urinary tract infection model test in mice; format: in vivo; details: ICR female mice, 25 mg/kg once by tail vein 2 hours after infection, kidney count on the day after infection
Procedure: The mice used were ICR female SPF mice (5 weeks old: 5 mice per group). The inoculum solution was prepared by suspending a clinical isolate of Pseudomonas aeruginosa (S-2838 strain) cultured overnight at 37° C. on a Mueller-Hinton agar plate in sterile saline. The infection was induced by inoculating 0.2 mL (about 10^3 CFU/mouse) of the inoculum solution into the urethra of each mouse. The test compound was dissolved in sterile saline and given once by tail vein administration 2 hours after infection. The count of viable cells in the kidney on the day after infection was recorded and the mean value was calculated.

[2] = Stability in 100 mmol/L tris-hydrochloric acid buffer (pH 7.4); format: physicochemical; details: compared to Example 1
[3] = Solubility test (visual dissolution in physiological saline; saturated solubility); format: physicochemical; details: saline or isotonic, thermodynamic from solid, 1.2 mg taken, dissolution confirmed visually
Procedure: The compounds of Examples 1 and 2 were taken in an amount of 1.2 mg, physiological saline was added during stirring until dissolution could be confirmed visually, and the solubility was calculated.

Q: With CNC(=O)[C@@](C)(C(=O)NO)N(C)C(=O)c1ccc(C#Cc2ccc([C@H](O)COP(=O)(O)O)cc2)cc1 [Comparative Example 1, (S)-2-hydroxy-2-(4-((4-(((S)-1-(hydroxyamino)-2-methyl-3-(methylamino)-1,3-dioxopropan-2-yl)(methyl)carbamoyl)phenyl)ethynyl)phenyl)ethyl phosphate] as the compound, how does the “decrease of count of viable cells in the kidney compared with control group” value [1] read?
A: < 4 log CFU/kidney

Q: For CNC(=O)[C@@](C)(C(=O)NOC(=O)CCC(=O)O)N(C)C(=O)c1ccc(C#Cc2ccc([C@H](O)CO)cc2)cc1 [Comparative Example 2, 4-(((S)-2-(4-((4-((S)-1,2-dihydroxyethyl)phenyl)ethynyl)-N-methylbenzamide)-2-methy 1-3-(methylamino)-3-oxopropanamide)oxy)-4-oxobutanoic acid], which “stability in buffer (decomposition to compound A)” value [2] is on record?
A: easily decomposed

Q: For CNC(=O)[C@@](C)(C(=O)NOP(=O)(O)O)N(C)C(=O)c1ccc(C#Cc2ccc([C@H](O)CO)cc2)cc1 [Example 1, (((S)-2-(4-((4-((S)-1,2-dihydroxyethyl)phenyl)ethynyl)-N-methylbenzamide)-2-methyl-3-(methylamino)-3-oxopropanamide)oxy)phosphonic acid], which solubility [3] is on record?
A: > 100 mg/mL

Q: Which solubility [3] does the source give for CNC(=O)[C@@](C)(C(=O)NOCOP(=O)(O)O)N(C)C(=O)c1ccc(C#Cc2ccc([C@H](O)CO)cc2)cc1 [Example 2, (((S)-2-(4-((4-((S)-1,2-dihydroxyethyl)phenyl)ethynyl)-N-methylbenzamide)-2-methyl-3-(methylamino)-3-oxopropanamide)oxy)methyl dihydrogen phosphate] here?
A: > 100 mg/mL

From patent US20200062789A1, “HYDROXAMIC ACID PRODRUG COMPOUND OR SALT THEREOF, LYOPHILIZED FORMULATION, LPXC INHIBITOR, AND ANTIBACTERIAL AGENT” (FUJIFILM Toyama Chemical Co., Ltd., priority 2017, published 2020)
